Experimental data from the NIST ThermoML archive (doi:10.1021/je400783h).

Settings: for mass density / vapor or sublimation pressure / viscosity / speed of sound: Liquid; for vapor or sublimation pressure: Ebulliometric method (Recirculating still); for surface tension liquid-gas: Drop volume; for viscosity: Capillary tube (Ostwald / Ubbelohde) method; for speed of sound: Pulse-echo method

Cc1ccc(C=O)o1 [5-methylfurfural]
Settings	mass density [kg/m3]	speed of sound [m/s]	viscosity [mPa·s]
313.15 K, 7500 kPa	1093.64	–	–
313.15 K, 10000 kPa	1095.27	–	–
313.15 K, 20000 kPa	1101.5	–	–
313.15 K, 30000 kPa	1107.37	–	–
313.15 K, 40000 kPa	1112.86	–	–
313.15 K, 50000 kPa	1118.1	–	–
313.15 K, 60000 kPa	1123.12	–	–
315.65 K, 101.33 kPa	–	1383.3	1.402
318.15 K, 100 kPa	1083.33	–	–
318.15 K, 101.33 kPa	–	1374.3	1.345
318.15 K, 2500 kPa	1085.42	–	–
318.15 K, 5000 kPa	1087.05	–	–
318.15 K, 7500 kPa	1088.71	–	–
318.15 K, 10000 kPa	1090.41	–	–
318.15 K, 20000 kPa	1096.72	–	–
318.15 K, 30000 kPa	1102.74	–	–
318.15 K, 40000 kPa	1108.39	–	–
318.15 K, 50000 kPa	1113.73	–	–
318.15 K, 60000 kPa	1118.89	–	–
320.65 K, 101.33 kPa	–	1365.3	1.292
323.15 K, 100 kPa	1078.33	–	–
323.15 K, 101.33 kPa	–	1356.1	1.241
323.15 K, 2500 kPa	1080.39	–	–
323.15 K, 5000 kPa	1082.17	–	–
323.15 K, 7500 kPa	1083.95	–	–
323.15 K, 10000 kPa	1085.56	–	–
323.15 K, 20000 kPa	1092.07	–	–
323.15 K, 30000 kPa	1098.22	–	–
323.15 K, 40000 kPa	1104.01	–	–
323.15 K, 50000 kPa	1109.47	–	–
323.15 K, 60000 kPa	1114.68	–	–
325.65 K, 101.33 kPa	–	1347.3	1.202
328.15 K, 100 kPa	1073.32	–	–
328.15 K, 101.33 kPa	–	1338.4	1.151
328.15 K, 2500 kPa	1075.43	–	–
328.15 K, 5000 kPa	1077.24	–	–
328.15 K, 7500 kPa	1079.03	–	–
328.15 K, 10000 kPa	1080.7	–	–
328.15 K, 20000 kPa	1087.38	–	–
328.15 K, 30000 kPa	1093.64	–	–
328.15 K, 40000 kPa	1099.55	–	–
328.15 K, 50000 kPa	1105.14	–	–
328.15 K, 60000 kPa	1110.48	–	–
330.65 K, 101.33 kPa	–	1329.5	1.11
333.15 K, 100 kPa	1068.3	–	–
333.15 K, 101.33 kPa	–	1320.5	1.072
333.15 K, 2500 kPa	1070.05	–	–
333.15 K, 5000 kPa	1072.29	–	–
333.15 K, 7500 kPa	1074.1	–	–
333.15 K, 10000 kPa	1075.84	–	–
333.15 K, 20000 kPa	1082.66	–	–
333.15 K, 30000 kPa	1089.1	–	–
333.15 K, 40000 kPa	1095.12	–	–
333.15 K, 50000 kPa	1100.86	–	–
333.15 K, 60000 kPa	1106.23	–	–
335.65 K, 101.33 kPa	–	1311.6	1.039
338.15 K, 100 kPa	1063.25	–	–
338.15 K, 101.33 kPa	–	1302.8	1.002
338.15 K, 2500 kPa	1065.43	–	–
338.15 K, 5000 kPa	1067.33	–	–
338.15 K, 7500 kPa	1069.06	–	–
338.15 K, 10000 kPa	1070.99	–	–
338.15 K, 20000 kPa	1077.96	–	–
338.15 K, 30000 kPa	1084.52	–	–
338.15 K, 40000 kPa	1090.69	–	–
338.15 K, 50000 kPa	1096.51	–	–
338.15 K, 60000 kPa	1102.02	–	–

Settings	surface tension liquid-gas [mN/m]	vapor or sublimation pressure [kPa]
313.15 K	–	0.2
315.65 K	38.44	–
318.15 K	38.13	0.3
320.65 K	37.78	–
323.15 K	37.51	0.4
325.65 K	37.26	–
328.15 K	36.91	0.54
330.65 K	36.54	–
333.15 K	36.21	0.74
335.65 K	35.92	–
338.15 K	35.57	0.97
343.15 K	–	1.3
348.15 K	–	1.66
353.15 K	–	2.17
358.15 K	–	2.76
363.15 K	–	3.52
368.15 K	–	4.4
373.15 K	–	5.52
378.15 K	–	6.79
383.15 K	–	8.43
388.15 K	–	10.2
393.15 K	–	12.31
398.15 K	–	15
403.15 K	–	18
408.15 K	–	21.27
413.15 K	–	25.33
418.15 K	–	30.01
423.15 K	–	34.95
428.15 K	–	40.57
433.15 K	–	47.43
438.15 K	–	55.14
443.15 K	–	63.39
448.15 K	–	72.37
453.15 K	–	83.4

101.33 kPa, Vibrating tube method
Settings	mass density [kg/m3]
315.65 K	1085.82
318.15 K	1083.33
320.65 K	1080.83
323.15 K	1078.33
325.65 K	1075.83
328.15 K	1073.32
330.65 K	1070.81
333.15 K	1068.3
335.65 K	1065.78
338.15 K	1063.25
